Reference: ChEMBL document CHEMBL3045595, “Synthesis and characterization of new types of 2-(6-methoxy-2-naphthyl)propionamide derivatives as potential antibacterial and antifungal agents” (2013)
Values after ≈ are worked out from the molar mass of the structure shown. Active and inactive are the calls of the source. The rule behind the calls is not given here.

Columns and labels:
Assay type in all cases: functional
Escherichia coli [1] = experiment: Antibacterial activity against Escherichia coli RCMB 000103 at 1 mg/ml after 24 hrs by agar well diffusion method; conditions: for zone of inhibition at 1000 µg/mL: RCMB 000103, 24 h, read-out: DIZ
Candida albicans [2] = experiment: Antifungal activity against Candida albicans RCMB 05035 at 1 mg/ml after 72 hrs by agar well diffusion method; conditions: for zone of inhibition at 1000 µg/mL: RCMB 05035, 72 h, read-out: DIZ
Bacillus subtilis [3] = experiment: Antibacterial activity against Bacillus subtilis RCMB 010063 at 1 mg/ml after 24 hrs by agar well diffusion method; conditions: RCMB 010063, 24 h, read-out: DIZ
Pseudomonas aeruginosa [4] = experiment: Antibacterial activity against Pseudomonas aeruginosa RCMB 010043 at 1 mg/ml after 24 hrs by agar well diffusion method; conditions: for zone of inhibition at 1000 µg/mL: RCMB 010043, 24 h, read-out: DIZ
Staphylococcus aureus [5] = experiment: Antibacterial activity against Staphylococcus aureus RCMB 010027 at 1 mg/ml after 24 hrs by agar well diffusion method; conditions: RCMB 010027, 24 h, read-out: DIZ
Aspergillus ochraceus [6] = experiment: Antifungal activity against Aspergillus ochraceus RCMB 02593 at 1 mg/ml after 72 hrs by agar well diffusion method; conditions: RCMB 02593, 72 h, read-out: DIZ
Aspergillus ochraceus [7] = experiment: Antifungal activity against Aspergillus ochraceus RCMB 02593
Staphylococcus aureus [8] = experiment: Antibacterial activity against Staphylococcus aureus RCMB 010027 after 24 hrs by twofold serial dilution method; conditions: RCMB 010027, 24 h
Candida albicans [9] = experiment: Antifungal activity against Candida albicans RCMB 05035
Bacillus subtilis [10] = experiment: Antibacterial activity against Bacillus subtilis RCMB 010063 after 24 hrs by twofold serial dilution method; conditions: RCMB 010063, 24 h
Pseudomonas aeruginosa [11] = experiment: Antibacterial activity against Pseudomonas aeruginosa RCMB 010043 after 24 hrs by twofold serial dilution method; conditions: RCMB 010043, 24 h
Escherichia coli [12] = experiment: Antibacterial activity against Escherichia coli RCMB 000103 after 24 hrs by twofold serial dilution method; conditions: RCMB 000103, 24 h
Candida albicans [13] = experiment: Antifungal activity against Candida albicans RCMB 05035 at 25 ug/ml after 72 hrs by agar well diffusion method; conditions: RCMB 05035, 72 h, read-out: DIZ
Aspergillus ochraceus [14] = experiment: Antifungal activity against Aspergillus ochraceus RCMB 02593 at 25 ug/ml after 72 hrs by agar well diffusion method; conditions: RCMB 02593, 72 h, read-out: DIZ
Bacillus subtilis [15] = experiment: Antibacterial activity against Bacillus subtilis RCMB 010063 at 25 ug/ml after 24 hrs by agar well diffusion method; conditions: RCMB 010063, 24 h, read-out: DIZ
Pseudomonas aeruginosa [16] = experiment: Antibacterial activity against Pseudomonas aeruginosa RCMB 010043 at 25 ug/ml after 24 hrs by agar well diffusion method; conditions: RCMB 010043, 24 h, read-out: DIZ
Staphylococcus aureus [17] = experiment: Antibacterial activity against Staphylococcus aureus RCMB 010027 at 25 ug/ml after 24 hrs by agar well diffusion method; conditions: RCMB 010027, 24 h, read-out: DIZ
Escherichia coli [18] = experiment: Antibacterial activity against Escherichia coli RCMB 000103 at 25 ug/ml after 24 hrs by agar well diffusion method; conditions: RCMB 000103, 24 h, read-out: DIZ

Row | Compound | zone of inhibition at 1000 µg/mL (Bacillus subtilis [3]) [mm] | diameter of the inhibition zone (DIZ) (Pseudomonas aeruginosa [4]) | zone of inhibition at 1000 µg/mL (Staphylococcus aureus [5]) [mm] | zone of inhibition at 1000 µg/mL (Aspergillus ochraceus [6]) [mm] | zone of inhibition at 1000 µg/mL (Escherichia coli [1]) [mm] | zone of inhibition at 1000 µg/mL (Candida albicans [2]) [mm] | MIC (Aspergillus ochraceus [7]) [µg/mL] | MIC (Staphylococcus aureus [8]) [µg/mL] | MIC (Candida albicans [9]) | zone of inhibition at 1000 µg/mL (Pseudomonas aeruginosa [4]) [mm] | MIC (Bacillus subtilis [10]) [µg/mL] | MIC (Pseudomonas aeruginosa [11]) [µg/mL] | MIC (Escherichia coli [12]) [µg/mL] | further results
1 | COc1ccc2cc(C(C)C(=O)NCCNC(=O)C(C)c3ccc4cc(OC)ccc4c3)ccc2c1 (stereo not drawn) | 14.5 | inactive | 13.1 | 12.6 |  |  |  |  |  |  |  |  |  | diameter of the inhibition zone (DIZ) (Escherichia coli [1]): inactive; diameter of the inhibition zone (DIZ) (Candida albicans [2]): inactive
2 | COc1ccc2cc(C(C)C(=O)Nc3ccc(CC(=O)O)cc3)ccc2c1 (stereo not drawn) | 18.4 | inactive | 17.3 | 13.9 | 16.6 | 12.2 |  |  |  |  |  |  |  | 
3 | COc1ccc2cc(C(C)C(=O)Nc3ccc4c(c3)Sc3ccccc3N4)ccc2c1 (stereo not drawn) | 24.6 |  | 21.4 | 17.6 | 20.2 | 16.9 | 15.6 (≈ 36.6 µM) | 3.9 (≈ 9.14 µM) | 31.2 µg/mL (≈ 73.3 µM) | 13.6 | 0.97 (≈ 2.27 µM) | 7.81 (≈ 18.3 µM) | 7.81 (≈ 18.3 µM) | 
4 | COc1ccc2cc(C(C)C(=O)Nc3ccc(C(=O)O)cc3)ccc2c1 (stereo not drawn) | 23.7 |  | 21.6 | 19.4 | 20.3 | 15.6 | 7.81 (≈ 22.4 µM) | 0.24 (≈ 0.687 µM) | 62.5 µg/mL (≈ 179 µM) | 15.9 | 3.9 (≈ 11.2 µM) | 15.6 (≈ 44.7 µM) | 1.95 (≈ 5.58 µM) | 
5 | COc1ccc2cc(C(C)C(=O)Nc3ccc(S(=O)(=O)Nc4ncccn4)cc3)ccc2c1 (stereo not drawn) | 28.7 |  | 25.3 | 11.7 | 21.6 |  | 3.9 (≈ 8.43 µM) | 0.24 (≈ 0.519 µM) | inactive | 16.8 | 7.81 (≈ 16.9 µM) | 3.9 (≈ 8.43 µM) | 3.9 (≈ 8.43 µM) | diameter of the inhibition zone (DIZ) (Candida albicans [2]): inactive
6 | OC(Cn1cncn1)(Cn1cncn1)c1ccc(F)cc1F [FLUCONAZOLE] |  |  |  |  |  |  | 1.95 (≈ 6.37 µM) |  | 0.24 µg/mL (≈ 0.784 µM) |  |  |  |  | zone of inhibition at 25 µg/mL (Candida albicans [13]): 26.4 mm; zone of inhibition at 25 µg/mL (Aspergillus ochraceus [14]): 21.9 mm
7 | COc1ccc2cc(C(C)C3=N/C(=C/c4ccc(Cl)cc4)C(=O)O3)ccc2c1 (stereo not drawn) | 15 | inactive | 13.9 | 14.5 |  |  |  |  |  |  |  |  |  | diameter of the inhibition zone (DIZ) (Escherichia coli [1]): inactive; diameter of the inhibition zone (DIZ) (Candida albicans [2]): inactive
8 | COc1ccc2cc(C(C)C(=O)NCc3n[nH]c(=S)[nH]3)ccc2c1 (stereo not drawn) | 23.9 |  | 21.9 | 20.2 | 20.9 | 18.8 | 7.81 (≈ 22.8 µM) | 3.9 (≈ 11.4 µM) | 31.2 µg/mL (≈ 91.3 µM) | 16.8 | 0.97 (≈ 2.83 µM) | 31.2 (≈ 91.3 µM) | 7.81 (≈ 22.8 µM) | 
9 | COc1ccc2cc(C(C)C(=O)NCC(=O)O)ccc2c1 (stereo not drawn) | 16.4 | inactive | 14.2 | 20.9 | 13.4 | 20.6 |  |  |  |  |  |  |  | 
10 | O=C(O)c1cn(C2CC2)c2cc(N3CCNCC3)c(F)cc2c1=O [CIPROFLOXACIN] |  |  |  |  |  |  |  | 0.06 (≈ 0.181 µM) |  |  | 0.007 (≈ 0.0211 µM) | 31.2 (≈ 94.3 µM) | 1.95 (≈ 5.89 µM) | 
11 | COc1ccc2cc(C(C)C(=O)NNC(=O)C(C)c3ccc4cc(OC)ccc4c3)ccc2c1 (stereo not drawn) | 19.4 | inactive | 17.9 | 16 | 17.1 | 13.5 |  |  |  |  |  |  |  | 
12 | COc1ccc2cc(C(C)C(=O)NCc3n[nH]c(=S)n3N)ccc2c1 (stereo not drawn) | 23.7 |  | 21.6 | 19.4 | 20.3 | 20.6 | 15.6 (≈ 43.7 µM) | 3.9 (≈ 10.9 µM) | 62.5 µg/mL (≈ 175 µM) | 15.9 | 0.97 (≈ 2.71 µM) | 62.5 (≈ 175 µM) | 7.81 (≈ 21.8 µM) | 
13 | COc1ccc2cc(C(C)C(=O)Nc3ccc(N(C(C)=O)c4ccccc4)cc3)ccc2c1 (stereo not drawn) | 17.1 | inactive | 16.2 | 12.4 | 14.6 | 9.3 |  |  |  |  |  |  |  | 
14 | COc1ccc2cc(C(C)C3=N/C(=C/c4ccc(F)cc4)C(=O)O3)ccc2c1 (stereo not drawn) | 20.6 |  | 20.3 | 18.3 | 19.3 | 19.9 | 15.6 (≈ 41.6 µM) | 7.81 (≈ 20.8 µM) | 125 µg/mL (≈ 333 µM) | 15.3 | 3.9 (≈ 10.4 µM) | 62.5 (≈ 166 µM) | 15.6 (≈ 41.6 µM) | 
15 | COc1ccc2cc(C(C)C(=O)N/C(=C/c3ccc(Cl)cc3)C(=O)Nc3ccc(C)cc3)ccc2c1 (stereo not drawn) | 19.6 | inactive | 19.9 | 14.8 | 14.3 | 13.6 |  |  |  |  |  |  |  | 
16 | COc1ccc2cc(C(C)C(=O)Nc3ccc(Nc4ccccc4)cc3)ccc2c1 (stereo not drawn) | 15.4 | inactive | 13.9 | 17.6 |  |  |  |  |  |  |  |  |  | diameter of the inhibition zone (DIZ) (Escherichia coli [1]): inactive; diameter of the inhibition zone (DIZ) (Candida albicans [2]): inactive
17 | CC1(C)S[C@@H]2[C@H](NC(=O)[C@H](N)c3ccccc3)C(=O)N2[C@H]1C(=O)O [AMPICILLIN] |  |  |  |  |  |  |  |  |  |  |  |  |  | zone of inhibition at 25 µg/mL (Bacillus subtilis [15]): 34.6 mm; zone of inhibition at 25 µg/mL (Pseudomonas aeruginosa [16]): 17.3 mm; zone of inhibition at 25 µg/mL (Staphylococcus aureus [17]): 28.9 mm; zone of inhibition at 25 µg/mL (Escherichia coli [18]): 21.4 mm
18 | COc1ccc2cc(C(C)C(=O)Nc3ccc(S(=O)(=O)NC(C)=O)cc3)ccc2c1 (stereo not drawn) | 23.4 |  | 23.3 | 18.6 | 21.3 | 17.8 | 15.6 (≈ 36.6 µM) | 0.97 (≈ 2.27 µM) | 31.2 µg/mL (≈ 73.3 µM) | 14.5 | 0.97 (≈ 2.27 µM) | 125 (≈ 293 µM) | 3.9 (≈ 9.14 µM) | 
19 | COc1ccc2cc(C(C)C(=O)NC(C)C(=O)O)ccc2c1 (stereo not drawn) | 15.8 | inactive | 15.1 | 12.7 | 14.3 | 10.6 |  |  |  |  |  |  |  | 
20 | COc1ccc2cc(C(C)C(=O)Nc3ccc(S(=O)(=O)Nc4cc(C)on4)cc3)ccc2c1 (stereo not drawn) | 21.7 |  | 20.6 | 17.3 | 19.9 | 16.5 | 7.81 (≈ 16.8 µM) | 31.2 (≈ 67.1 µM) | 250 µg/mL (≈ 537 µM) | 13 | 62.5 (≈ 134 µM) | 1.95 (≈ 4.19 µM) | 3.9 (≈ 8.38 µM) | 
21 | COc1ccc2cc(C(C)C(=O)Nc3ccc(C)cc3)ccc2c1 (stereo not drawn) | 17.2 | inactive | 16.1 | 14.7 | 15.6 | 12.8 |  |  |  |  |  |  |  | 
